{
  "source": "patent US20210302366A1",
  "about": "“Method for Pathogen Detection” (priority 2020, published 2021)",
  "key": {"Escherichia coli": {"tested_on": "Escherichia coli", "assay": "pathogen detection chip (differential drain current) with agar plating, Escherichia coli", "type": "cell-based", "details": "for differential drain current ΔIds, local maximum: 2nd hour of culturing", "text": "(§1) The drain voltage Vds may cause a drain current Ids to be measured as the electrical signal. In some embodiments, during the course of culturing the biological sample 207A, metabolites and/or the ions of the biological sample 207A generated due to the interaction of which with the interacting agents 207B may cause the front gate voltage Vgs-fg to change and thus the change of drain voltage Vds as well as the measured drain current Ids. By analyzing the electrical signal of the differential drain current ΔIds, several characteristics of the biological sample 207A can be determined within a short time frame and at a relative low sample concentration. In some embodiments, the sensor 20 may occupies a footprint of 5 μm by 5 μm. A bias of +1.8V can be applied to the first gate 209 and a bias of −0.5V can be applied to the second gate 209′ during the measurement of drain current Ids.\n(§2) Two approaches can be used to measure the differential drain current ΔIds. One approach is to subtract the drain current Ids measured from a control group of the sensor 20 where no biological sample is introduced into the culturing medium 207 from the drain current Ids measured from an experimental group of the sensor 20 where biological sample is introduced into the culturing medium 207 during the course of culturing. The other approach is to subtract the initial drain current Ids (e.g. at t=0) from the drain current Ids measured from an experimental group of the sensor 20 where biological sample is introduced into the culturing medium 207 during the course of culturing. The latter approach can be adopted for real-time pathogen detection, and the former approach can be adopted in a more systematic study where the concentration of biological sample and the pH value of the culturing medium 207 can be recorded simultaneously.\n(§3) To prepare the culturing medium, 200 μL of non-buffered LB broth having predetermined dosages (including zero dosage) of interacting agent was inoculated with predetermined concentration of Escherichia coli and cultured at a temperature of 37° C. The sample was subjected to the pathogen detection using the pathogen detection chip and sensor described herein with a front gate voltage of +1.8V and a back gate voltage of −0.5V for drain current Ids measurement at predetermined time points (e.g., at each hour). The differential drain current ΔIds can be determined using the two approaches previously described, including (1) subtracting the drain current Ids measured from a control group from the drain current Ids measured from an experimental group during the course of culturing; and (2) subtracting the initial drain current Ids (e.g. at t=0) from the drain current Ids measured from an experimental group during the course of culturing. When the former approach is taken, the concentration of biological sample can be determined by agar plating under the same environmental condition.\nSample preparation and measurement condition can be referred to those in Example 4A and are not repeated here for brevity. […] For example, in Example 4B, a differential drain current ΔIds of greater than 0.07 μA (e.g., about 0.08 μA) can be identified as a blip in the electrical signal. In addition, a differential drain current ΔIds of about 0.04 μA can be identified as a sub-blip at the 6th hour. As previously described, electrical signal lower than 0.03 μA is not considered as a blip or a sub-blip in some of the embodiments."}, "Klebsiella pneumoniae": {"tested_on": "Klebsiella pneumoniae", "assay": "pathogen detection chip (differential drain current) with agar plating, Klebsiella pneumoniae", "type": "cell-based", "quoted_text": "The drain voltage Vds may cause a drain current Ids to be measured as the electrical signal. In some embodiments, during the course of culturing the biological sample 207A, metabolites and/or the ions of the biological sample 207A generated due to the interaction of which with the interacting agents 207B may cause the front gate voltage Vgs-fg to change and thus the change of drain voltage Vds as well as the measured drain current Ids. By analyzing the electrical signal of the differential drain current ΔIds, several characteristics of the biological sample 207A can be determined within a short time frame and at a relative low sample concentration. […] A bias of +1.8V can be applied to the first gate 209 and a bias of −0.5V can be applied to the second gate 209′ during the measurement of drain current Ids.\nTo prepare the culturing medium, 200 μL of non-buffered LB broth having predetermined dosages (including zero dosage) of interacting agent was inoculated with predetermined concentration of Klebsiella pneumoniae and cultured at a temperature of 37° C. […]"}, "Staphylococcus aureus": {"tested_on": "Staphylococcus aureus", "assay": "pathogen detection chip (differential drain current) with agar plating, Staphylococcus aureus", "type": "cell-based", "details": "for blips/sub-blips identified in the electrical signal: first 8 hours of culturing; for biological sample resistant or sensitive to the interacting agent: from electrical signal pattern and CFU; for trend of number of colony-forming unit (CFU) from agar plating: over the course of culturing", "text": "as §1, §2\nas §3, with “Staphylococcus aureus” for “Escherichia coli”\nSample preparation and measurement condition can be referred to those in Example 2A and are not repeated here for brevity."}, "Pseudomonas aeruginosa": {"tested_on": "Pseudomonas aeruginosa", "assay": "pathogen detection chip (differential drain current) with agar plating, Pseudomonas aeruginosa", "type": "cell-based", "details": "for biological sample resistant or sensitive to the interacting agent: from electrical signal pattern and CFU; for trend of number of colony-forming unit (CFU) from agar plating: over the course of culturing", "text": "as §1, §2\nas §3, with “Pseudomonas aeruginosa” for “Escherichia coli”\nSample preparation and measurement condition can be referred to those in Example 3A and are not repeated here for brevity. […] For example, in Example 3B, a differential drain current ΔIds of about 0.16 μA can be identified as a blip in the electrical signal."}, "Escherichia coli K12": {"tested_on": "Escherichia coli K12", "assay": "minimum inhibitory concentration (MIC) test", "type": "cell-based"}, "Escherichia coli pku57": {"tested_on": "Escherichia coli pku57", "assay": "microbe, parasite or virus in culture"}, "[1]": {"details": "from electrical signal pattern and CFU"}, "[2]": {"details": "throughout the first 9 hour of culturing"}},
  "data": [
    {"compound": "CN[C@@H]1[C@H](O)[C@H](NC)[C@H]2O[C@@]3(O)C(=O)C[C@@H](C)O[C@H]3O[C@@H]2[C@H]1O", "note": "[Spectinomycin]", "values": [
      {"measurement": "differential drain current ΔIds, local maximum", "setting": "Escherichia coli", "result": "about 0.05 μA"},
      {"measurement": "biological sample resistant or sensitive to the interacting agent", "setting": "Escherichia coli; [1]", "result": "sensitive"},
      {"measurement": "trend of number of colony-forming unit (CFU) from agar plating", "setting": "Escherichia coli; over the course of culturing", "result": "neither increasing or decreasing"},
      {"measurement": "differential drain current ΔIds", "setting": "Escherichia coli; [2]", "result": "lower than 0.07 μA"}
    ]},
    {"compound": "Gentamicin", "values": [
      {"measurement": "differential drain current ΔIds, blip", "setting": "Klebsiella pneumoniae; 3rd hour of culturing, LB broth, 37° C.", "result": "about 0.15 μA"},
      {"measurement": "biological sample resistant or sensitive to the interacting agent", "setting": "Klebsiella pneumoniae; [1]", "result": "resistant"},
      {"measurement": "trend of number of colony-forming unit (CFU) from agar plating", "setting": "Klebsiella pneumoniae; over the course of culturing", "result": "monotonic increasing"},
      {"measurement": "blips/sub-blips identified in the electrical signal", "setting": "Staphylococcus aureus", "result": "a blip at the 2nd hour and a sub-blip at the 5th hour"},
      {"measurement": "biological sample resistant or sensitive to the interacting agent", "setting": "Staphylococcus aureus", "result": "resistant"},
      {"measurement": "trend of number of colony-forming unit (CFU) from agar plating", "setting": "Staphylococcus aureus", "result": "monotonic increasing"},
      {"measurement": "blips/sub-blips identified in the electrical signal", "setting": "Pseudomonas aeruginosa; first 9 hour of culturing", "result": "no blips or sub-blips (a differential drain current ΔIds showing local maximum lower than 0.03 μA is not identified as a blip or a sub-blip)"},
      {"measurement": "biological sample resistant or sensitive to the interacting agent", "setting": "Pseudomonas aeruginosa", "result": "sensitive"},
      {"measurement": "trend of number of colony-forming unit (CFU) from agar plating", "setting": "Pseudomonas aeruginosa", "result": "monotonic decreasing"},
      {"measurement": "differential drain current ΔIds", "setting": "Pseudomonas aeruginosa; [2]", "result": "lower than 0.03 μA"}
    ]},
    {"compound": "NC[C@H]1O[C@H](O[C@H]2[C@H](O)[C@@H](O[C@H]3O[C@H](CO)[C@@H](O)[C@H](N)[C@H]3O)[C@H](N)C[C@@H]2N)[C@H](O)[C@@H](O)[C@@H]1O", "note": "[Kanamycin]", "values": [
      {"measurement": "differential drain current ΔIds, local maximum", "setting": "Escherichia coli", "result": "about 0.08 μA"},
      {"measurement": "differential drain current ΔIds, sub-blip", "setting": "Escherichia coli; 6th hour of culturing", "result": "about 0.04 μA"},
      {"measurement": "MIC", "setting": "Escherichia coli K12", "result": 25, "unit": "µg/mL"},
      {"measurement": "MIC", "setting": "Escherichia coli pku57", "result": "< 50", "unit": "µg/mL"}
    ]},
    {"compound": "CC1(C)S[C@@H]2[C@H](NC(=O)[C@H](N)c3ccccc3)C(=O)N2[C@H]1C(=O)O", "note": "[Ampicillin]", "values": [
      {"measurement": "blips/sub-blips identified in the electrical signal", "setting": "Staphylococcus aureus", "result": "no blips or sub-blips (a differential drain current ΔIds showing local maximum lower than 0.03 μA is not identified as a blip or a sub-blip)"},
      {"measurement": "biological sample resistant or sensitive to the interacting agent", "setting": "Staphylococcus aureus", "result": "sensitive"},
      {"measurement": "trend of number of colony-forming unit (CFU) from agar plating", "setting": "Staphylococcus aureus", "result": "monotonic decreasing"},
      {"measurement": "differential drain current ΔIds", "setting": "Staphylococcus aureus; throughout the first 8 hour of culturing", "result": "lower than 0.03 μA"},
      {"measurement": "differential drain current ΔIds, blip", "setting": "Pseudomonas aeruginosa; 1st hour of culturing", "result": "about 0.16 μA"},
      {"measurement": "biological sample resistant or sensitive to the interacting agent", "setting": "Pseudomonas aeruginosa", "result": "resistant"},
      {"measurement": "trend of number of colony-forming unit (CFU) from agar plating", "setting": "Pseudomonas aeruginosa", "result": "monotonic increasing"}
    ]}
  ]
}
